For twelve molecules, IC50 results are on record in ChEMBL document CHEMBL4823309, “The Potential of c-KIT Kinase inhibitors in Cancer Treatment” (ACS Med Chem Lett, 2021).

The term IC50 denotes the midpoint of a concentration-inhibition curve.

Structures are written as SMILES.

The assay in a line: Inhibition of C-KIT V654A/560-576 deletion mutant in human GIST-430/654 cells assessed as reduction in c-Kit autophosphorylation at […] residue incubated for 45 mins by Luminex bead based assay. The class given is cell-based. To be noted: GIST-430/654, 0.75 h.
Take `Cn1ncc(-c2ccc(CNc3cc(-c4cnc5cc(OCCCN6CCCC6)ccn45)ncn3)cc2)n1`: the 50% inhibitory concentration (IC50) amounted to 45 nM.

On to `COc1ccn2c(-c3cc(NCc4ccc(-c5cnn(C)c5)cc4)ncn3)cnc2c1`, for which the IC50 came out at 55 nM.

For the molecule `COCCN1CCC(COc2ccn3c(-c4cc(NCc5ccc(-c6cnn(C)n6)cc5)ncn4)cnc3c2)CC1`, the IC50 was 39 nM.

Consider `CNC1CN(c2ccn3c(-c4cc(NCc5ccc(-c6cnn(C)c6)cc5)ncn4)cnc3c2)C1`, for which the IC50 came to 140 nM.

As to `COc1ccn2c(-c3cc(NCc4ccc(-c5cnn(C)n5)cc4)ncn3)cnc2c1`, the IC50 came to 78 nM.

In the case of `Cc1nc(-c2ccc(CNc3cc(-c4cnc5cc(OCCO)ccn45)ncn3)cc2)co1`, the IC50 turned out to be 74 nM.

On to `Cn1ncc(-c2ccc(CNc3cc(-c4cnc5cc(OCCN6CC7(COC7)C6)ccn45)ncn3)cc2)n1`, for which the IC50 came out at 40 nM.

As to `CN1CC(COc2ccn3c(-c4cc(NCc5ccc(-c6cnn(C)c6)cc5)ncn4)cnc3c2)C1`, the IC50 is 61 nM.

Consider `Cn1cc(-c2ccc(CNc3cc(-c4cnc5cc(OCCN6CCC[C@@H]7OCC[C@@H]76)ccn45)ncn3)cc2)cn1`, for which the IC50 came to 100 nM.

In the case of `Cn1cc(-c2ccc(CNc3cc(-c4cnc5cc(OC6CCOC6)ccn45)ncn3)cc2)cn1` (configuration not stated), the IC50 amounted to 270 nM.

In the case of `c1ccn2c(-c3cc(NCc4ccc(-n5cccn5)cc4)ncn3)cnc2c1`, the IC50 came to 190 nM.

Take `Cn1cc(-c2ccc(CNc3cc(-c4cnc5cc(CCN6CCN(C7COC7)CC6)ccn45)ncn3)cc2)cn1`: the IC50 amounted to 330 nM.
